Test results published in publication PMC6108528, “Enhanced uptake of potassium or glycine betaine or export of cyclic-di-AMP restores osmoresistance in a high cyclic-di-AMP Lactococcus lactis mutant” (PLoS Genetics, 2018).

Target: T1, full length BusR (Lactococcus cremoris, UniProt A2RK30)
T1 construct: full length, His-6 tag fusion in pRSETA, codon optimised, E. coli BL21 whole cell lysate
T1 sequence (A2RK30 1-206): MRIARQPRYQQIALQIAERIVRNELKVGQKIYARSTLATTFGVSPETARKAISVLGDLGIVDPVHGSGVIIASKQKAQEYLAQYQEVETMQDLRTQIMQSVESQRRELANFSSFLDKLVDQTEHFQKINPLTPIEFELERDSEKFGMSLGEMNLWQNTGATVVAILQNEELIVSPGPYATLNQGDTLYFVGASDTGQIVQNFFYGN
Test: DRaCALA with […]-c-di-AMP, E. coli whole cell lysate
Type: biochemical
Conditions: labelled compound; room temperature, 10 min

## Nc1ncnc2c1ncn2[C@@H]1O[C@@H]2COP(=O)(O)O[C@H]3[C@@H](O)[C@H](n4cnc5c(N)ncnc54)O[C@@H]3COP(=O)(O)O[C@H]2[C@H]1O [c-di-AMP]
  DRaCALA with 32P-c-di-AMP, E. coli whole cell lysate: Both full length BusR and the BusR TrkA_C domain bound c-di-AMP
